In patent publication US12319678B2, “Thioridazine derivatives and their use for the treatment of cancer” (UNIVERSITA' DEGLI STUDI DI PADOVA, priority 2019, dated 2025):

Columns and labels:
[1] = system: SHI-1, an AML cell line with the genetic aberrancy t(6;11); experiment: Apoptosis assay (Annexin-V/propidium iodide) in t(6;11) SHI-1 cells; type: cell-based; conditions: for apoptotic and dead cells: relative to DMSO; for cytotoxic activity on t(6;11) AML cells (cell death): SHI-1, 24 h after treatment, compared with TDZ
Method: (§1) Apoptosis was evaluated by double staining with Annexin-V/propidium iodide (Roche Biochemicals, Indianapolis, IN) and analyzed using Cytometer F C500 (Beckman Coulter, Brea, CA). Increased apoptosis was calculated and expressed as the percentage of Annexin-V-positive and propidium iodide-positive cells compared to those exposed to DMSO.

[2] = system: other AML cell lines harboring other genetic mutations (HL60, NOMO1, SKNO-1); experiment: Apoptosis assay in non-t(6;11) AML cell lines; type: cell-based; conditions: 24 and 48 h
Method: as §1

[3] = system: t(6;11) SHI-1 cells; experiment: Colonies forming assay in t(6;11) SHI-1 cells; type: cell-based; conditions: 24 h pre-treatment, viable cells seeded in drug-free condition
Method: (§2) After 24 h of treatment, a total of 5×10^2 ML2, SHI-1, HL60, SKNO-1 or NOMO-1 cells and 3×10^3 primary blasts from patients with t(6;11)—rearranged AML were seeded into 500 μl of MethoCult™ (H4230 and H4534 respectively, Stemcell Technologies, Meda M B, Italy), in 24-well plates and incubated at 37° C. Fourteen days after seeding, an adequate volume of a 1:6 solution of 3-[4,5-dimethylthiazol-2-yl]-2,5-diphenyltetrazolium bromide (MTT, Sigma-Aldrich-Merck) in Hanks' was added to semisolid medium. Images were acquired by optical microscope with camera, and colonies were counted using ImageJ software.

[4] = system: non-t(6;11) HL60, NOMO-1, SKNO-1 cells; experiment: Colonies forming assay in non-t(6;11) AML cell lines; type: cell-based; conditions: 24 h of treatment, other AML cell lines
Method: as §2

[5] = system: primary cultures from patients with t(6;11) AML; experiment: Apoptosis assay in primary t(6;11) AML cultures; type: cell-based; conditions: primary t(6;11) AML compared with non-t(6;11)-AML; 24 and 48 h
Method: as §1

[6] = system: healthy bone marrow (HBM) cells; experiment: Apoptosis assay in healthy bone marrow cells; type: cell-based; conditions: 24 and 48 h
Method: as §1

[7] = system: t(6;11)-AML primary cells; experiment: Colonies forming assay in t(6;11)-AML primary cells; type: cell-based
Method: as §2

[8] = system: SHI-1 xenografted mice; experiment: Flank injection xenograft, SHI-1; type: in vivo, NSG mice; conditions: 8 mg/kg daily i.p., compared with control (p<0.01 and p<0.001)
Method: (§3) Animal experiments were approved by the animal ethics committee of University of Padova and by Italian Minister of Health n° 512/2019-PR, and were executed in accordance with national guidelines and regulations. For flank injection experiments, six NOD-SCID interleukin-2 receptor gamma null (NSG) mice between 6 and 8 weeks of age were injected subcutaneously with 2×10^6 SHI-1, HL60 or THP-1 cells per flank-injection. Each mouse received two flank-injections. When tumors reached an area of 25 mm^2, mice were randomized in 2 groups (control and TDZ-treated), and daily treated with intraperitoneally (ip) administered TDZ 8 mg/kg. Experimental endpoint is reached when tumors reached an area of 250 mm^2.
(§4) TDZ was also used for further tests and particularly to test if it had same effects on leukemia growth in vivo in NOD/scid IL-2Rgnull (NSG) mice flank-injected with the SHI-1-t(6;11) or non-t(6;11) AML cell lines HL60 and THP-1. Xenografted tumor was allowed to grow up to ˜[…] before starting daily intraperitoneal (i.p.) TDZ administration (at 8 mg/kg concentration, below the previously described tolerated dose (Nagel D, Spranger S, Vincendeau M, Grau M, Raffegerst S, Kloo B, et al. Pharmacologic Inhibition of MALT1 Protease by Phenothiazines as a Therapeutic Approach for the Treatment of Aggressive ABC-DLBCL. Cancer Cell. 2012; 22:825-37)).

[9] = system: mice xenografted with HL60 or THP1; experiment: Flank injection xenograft, HL60 or THP1; type: in vivo, NSG mice; conditions: 8 mg/kg daily i.p.
Method: as §3, §4

[10] = system: t(6;11) SHI-1 cells; experiment: Reactive oxygen species (CellROX) by flow cytometry; type: cell-based; conditions: 6, 16 and 24 h after treatment, compared with DMSO
Method: ROS production was monitored by flow cytometry using CellROX Deep Red Reagent (C10422, Invitrogen) following manufacturer's instructions. Briefly, CellROX Deep Red Reagent was added at a final concentration of 5 μM to the cells and incubated for 30 minutes at 37° C. Cells were washed three times with PBS, and analyzed by flow cytometry using Cytoflex (Beckman Coulter).

[11] = system: t(6;11) SHI-1 cells; experiment: Mitochondrial membrane potential (TMRE); type: cell-based; conditions: 6 and 24 h after treatment, compared with DMSO
Method: Mitochondrial membrane potential was measured by using TMRE Assay Kit (ab113852, Abcam), following manufacturer's instructions Briefly, TMRE 200 nM diluted in BSA 0.2%-PBS1× was added for 20′ at 37° C. Cells were analyzed by flow cytometry using FC500.

[12] = system: SHI-1 cells; experiment: Intracellular Ca2+ measurement (Fluo-4 AM) in SHI-1 cells; type: cell-based; conditions: for mechanism of Ca2+ influx: SHI-1, Ca2+-containing or Ca2+-free buffer
Method: (§5) Intracellular Ca^2+ levels were monitored by Fluo-4 AM fluorescence according to the manufacturer's instructions. Briefly, cells were washed in Hanks Balanced Salt Solutions, incubated with Fluo-4 AM 3 μM diluted in the working buffer (0.02% w/v Pluronic and 0.2 mM sulfinpyrazone, both sourced from Sigma-Aldrich-Merck, in 10 mM HEPES-buffered Hanks) for 30′ at RT. After incubation, cells were washed and resuspended in working buffer with CaCl2) 0.2 mg/I for 30′, to allow the de-esterification of Fluo-4 AM. Results were evaluated using the FC500 cytometer, and 2-photon microscope Thorlabs. In both experiments, the mean fluorescence intensity (MFI) was detected at basal condition, and up to 5 minutes after treatment.

[13] = system: t(6;11) primary cells; experiment: Intracellular Ca2+ measurement (Fluo-4 AM) in t(6;11) primary cells; type: cell-based; conditions: primary cultures of t(6;11) AML
Method: as §5

[14] = system: NSG mice; experiment: Stepping test (akinesia, neuroleptic effects); type: in vivo; conditions: for neuroleptic effects (akinesia, stepping test): i.p., 36.85 μmol/Kg (corresponding to 15 mg/kg of TDZ), 1 h after injection
Method: Twelve NSG mice between 6 and 8 weeks of age were randomized in 4 groups (DMSO, thioridazine (TDZ), compound according to Example 1 (TDZ2) and compound according to Example 2 (TDZ6)), and treated every 2 days with growing doses of drugs, administered ip. […] The successive growing doses were 10 mg/kg, 12 mg/kg and finally 15 mg/kg, and the corresponding molar dose of the analogues. The stepping test was performed as previously described (Blume S R, Cass D K, Tseng K Y. Stepping test in mice: A reliable approach in determining forelimb akinesia in MPTP-induced Parkinsonism. Exp Neurol. 2009; 219:208-11) 1 h after drug injection, documented to be the time with the maximum TDZ serum concentration (Nagel D, Spranger S, Vincendeau M, Grau M, Raffegerst S, Kloo B, et al. Pharmacologic Inhibition of MALT1 Protease by Phenothiazines as a Therapeutic Approach for the Treatment of Aggressive ABC-DLBCL. Cancer Cell. 2012; 22:825-37). Briefly, the stepping test was performed on an open table and each trial was recorded using a digital video camera. The animal was allowed to settle at one edge of the table, then the experimenter would lift up the hind legs by pulling up on the tail, leaving only the forepaws touching the table, for a total distance of 1 m. The number of steps from both forepaws and the time used were computed.

## CSc1ccc2c(c1)N(CCC1CCCCN1C)c1ccccc1S2 (racemic) [TDZ, thioridazine]
[1]; SHI-1, 24 h of treatment
  apoptotic and dead cells: 60.8%
[1]; SHI-1, 48 h of treatment
  apoptotic and dead cells: 84.3%
[1]; SHI-1, treatment 16 h after MLL-AF6 silencing, 8, 24 and 30 h after treatment
  apoptosis level after MLL-AF6 silencing: significant rescue of apoptosis level
[2]
  apoptosis and cell death: almost no effects
[3]
  colony-forming ability: abrogated colony-forming ability
[4]
  clonogenic potential: did not decrease the clonogenic potential
[5]
  apoptosis: induced apoptosis selectively
[6]
  toxic effects: no toxic effects
[7]
  colony-forming ability: abrogated colony-forming ability
[8]
  progression of tumor growth: significantly reduced the progression of tumor growth
[9]
  tumor growth: not affected
[10]
  reactive oxygen species (ROS): highly increased
[11]
  mitochondrial depolarization (TMRE): mitochondrial depolarization
[12]; 0 minutes post treatment
  intracellular Ca2+, MFI (Fluo-4 AM, flow cytometry): 68.9
[12]; 1 minute post treatment
  intracellular Ca2+, MFI (Fluo-4 AM, flow cytometry): 91.8
[12]; 3 minutes post treatment
  intracellular Ca2+, MFI (Fluo-4 AM, flow cytometry): 85.8
[12]; 5 minutes post treatment
  intracellular Ca2+, MFI (Fluo-4 AM, flow cytometry): 85.4
[12]; Ca2+-containing buffer (external Ca2+ present)
  rise in intracellular Ca2+ concentration: triggers a rise in intracellular Ca^2+ concentration in the presence
[12]; SHI-1, EGTA pre-treatment 30' before TDZ
  Ca2+ intake after EGTA pre-treatment: Ca^2+ intake was prevented
[13]
  cytosolic Ca2+ influx: increased cytosolic Ca^2+ influx
[14]; 8 mg/kg i.p. starting dose, previously tested
  side effects: free of side effects
[14]
  neuroleptic effects (akinesia, stepping test): provokes severe central side effects

## COCCOCCOCCN1CCCCC1CCN1c2ccccc2Sc2ccc(SC)cc21 (stereo not shown) [TDZ2]
[1]
  cytotoxic activity on t(6;11) AML cells (cell death): maintain cytotoxic activity
[12]
  mechanism of Ca2+ influx: same mechanism of Ca^2+ influx of TDZ
[14]
  neuroleptic effects (akinesia, stepping test): did not induce neuroleptic effects

## CSc1ccc2c(c1)N(CCC1CCCCN1CCOCCOCCN)c1ccccc1S2 (stereo not shown) [TDZ6]
[1]
  cytotoxic activity on t(6;11) AML cells (cell death): maintain cytotoxic activity
[12]
  mechanism of Ca2+ influx: same mechanism of Ca^2+ influx of TDZ
[14]
  neuroleptic effects (akinesia, stepping test): did not induce neuroleptic effects
